Results: patent publication US20260345619A1 (Principia Biopharma Inc., priority 2023, published 2026)

Assay: Pre-bronchodilator FEV1 and percent predicted FEV1 by spirometry, change from baseline
Type: in vivo, human
Details: 400 mg TID, Week 12
Protocol: Spirometry is a standard test to measure patients' lung function.
The primary endpoint was the proportion of patients with LOAC. The key secondary endpoint for the study was change in pre-bronchodilator FEV1 from baseline at EOT.
Reversibility is defined as an increase of the absolute FEV1 after administration of bronchodilator and is measured by spirometry as postbronchodilator increase in FEV1 in percent of the prebronchodilator FEV1. After spirometry for measuring prebronchodilator FEV1, participants were to receive 2-4 puffs of albuterol/salbutamol or levalbuterol/levosalbutamol from a primed MDI. The postbronchodilator spirometry may have been repeated several times within 30 minutes after administration of bronchodilator. Alternatively, and only if it was consistent with usual office practice (to be documented), reversibility may have been performed using inhalation of nebulized albuterol/salbutamol or levalbuterol/levosalbutamol.
Secondary endpoints included pre-bronchodilator FEV1 change from baseline at EOT, ACQ-5 score change from baseline, and AQLQ score change from baseline. Other secondary and exploratory endpoints are described in Table 2.

[1] = baseline IgA <2190 mg/L (median)
[2] = baseline IgA ≥2190 mg/L (median)
[3] = baseline IgE <121.85 IU/mL (median)
[4] = baseline IgE ≥121.85 IU/mL (median)
[5] = baseline blood eosinophils <0.15 10^9/L
[6] = baseline blood eosinophils <0.3 10^9/L
[7] = baseline blood eosinophils ≥0.15-<0.3 10^9/L
[8] = baseline blood eosinophils ≥0.3 10^9/L
[9] = baseline percent predicted FEV1 <77% (median)
[10] = baseline percent predicted FEV1 <80%
[11] = baseline percent predicted FEV1 ≥77% (median)
[12] = baseline percent predicted FEV1 ≥80%

## CC(C)(C=C(C#N)C(=O)N1CCC[C@@H](n2nc(-c3ccc(Oc4ccccc4)cc3F)c3c(N)ncnc32)C1)N1CCN(C2COC2)CC1 (mixture of isomers) [rilzabrutinib, (R)-2-[3-[4-amino-3-(2-fluoro-4-phenoxy-phenyl)pyrazolo[3,4-d]pyrimidin-1-yl]piperidine-1-carbonyl]-4-methyl-4-[4-(oxetan-3-yl)piperazin-1-yl]pent-2-enenitrile]
Baseline FeNO ≥35 ppb
  Pre-bronchodilator FEV1 change from baseline, LS Mean Diff vs. placebo: -0.12 L
  Pre-bronchodilator FEV1 change from baseline, Mean: -0.07 L
[1]
  Pre-bronchodilator FEV1 change from baseline, LS Mean: -0.12 L
  Pre-bronchodilator FEV1 change from baseline, LS Mean Diff vs. placebo: -0.09 L
  Pre-bronchodilator FEV1 change from baseline, Mean: -0.12 L
[2]
  Pre-bronchodilator FEV1 change from baseline, LS Mean: -0.15 L
  Pre-bronchodilator FEV1 change from baseline, LS Mean Diff vs. placebo: -0.09 L
  Pre-bronchodilator FEV1 change from baseline, Mean: -0.17 L
Baseline IgE <100 IU/mL
  Pre-bronchodilator FEV1 change from baseline, LS Mean: -0.10 L
  Pre-bronchodilator FEV1 change from baseline, LS Mean Diff vs. placebo: -0.11 L
  Pre-bronchodilator FEV1 change from baseline, Mean: -0.20 L
[3]
  Pre-bronchodilator FEV1 change from baseline, LS Mean: -0.16 L
  Pre-bronchodilator FEV1 change from baseline, LS Mean Diff vs. placebo: -0.08 L
  Pre-bronchodilator FEV1 change from baseline, Mean: -0.17 L
Baseline IgE ≥100 IU/mL
  Pre-bronchodilator FEV1 change from baseline, LS Mean: -0.13 L
  Pre-bronchodilator FEV1 change from baseline, LS Mean Diff vs. placebo: -0.07 L
  Pre-bronchodilator FEV1 change from baseline, Mean: -0.12 L
[4]
  Pre-bronchodilator FEV1 change from baseline, LS Mean: -0.33 L
  Pre-bronchodilator FEV1 change from baseline, LS Mean Diff vs. placebo: -0.11 L
  Pre-bronchodilator FEV1 change from baseline, Mean: -0.13 L
[5]
  Pre-bronchodilator FEV1 change from baseline, LS Mean: -0.17 L
  Pre-bronchodilator FEV1 change from baseline, LS Mean Diff vs. placebo: -0.05 L
  Pre-bronchodilator FEV1 change from baseline, Mean: -0.17 L
[6]
  Pre-bronchodilator FEV1 change from baseline, LS Mean: -0.13 L
  Pre-bronchodilator FEV1 change from baseline, LS Mean Diff vs. placebo: -0.05 L
  Pre-bronchodilator FEV1 change from baseline, Mean: -0.15 L
[7]
  Pre-bronchodilator FEV1 change from baseline, LS Mean: -0.04 L
  Pre-bronchodilator FEV1 change from baseline, LS Mean Diff vs. placebo: -0.04 L
  Pre-bronchodilator FEV1 change from baseline, Mean: -0.10 L
[8]
  Pre-bronchodilator FEV1 change from baseline, LS Mean: -0.16 L
  Pre-bronchodilator FEV1 change from baseline, LS Mean Diff vs. placebo: -0.20 L
  Pre-bronchodilator FEV1 change from baseline, Mean: -0.16 L
[9]
  Pre-bronchodilator FEV1 change from baseline, LS Mean: -0.03 L
  Pre-bronchodilator FEV1 change from baseline, LS Mean Diff vs. placebo: -0.04 L
  Pre-bronchodilator FEV1 change from baseline, Mean: -0.10 L
[10]
  Pre-bronchodilator FEV1 change from baseline, LS Mean: -0.09 L
  Pre-bronchodilator FEV1 change from baseline, LS Mean Diff vs. placebo: -0.08 L
  Pre-bronchodilator FEV1 change from baseline, Mean: -0.13 L
[11]
  Pre-bronchodilator FEV1 change from baseline, LS Mean: -0.21 L
  Pre-bronchodilator FEV1 change from baseline, LS Mean Diff vs. placebo: -0.13 L
  Pre-bronchodilator FEV1 change from baseline, Mean: -0.19 L
[12]
  Pre-bronchodilator FEV1 change from baseline, LS Mean: -0.20 L
  Pre-bronchodilator FEV1 change from baseline, LS Mean Diff vs. placebo: -0.11 L
  Pre-bronchodilator FEV1 change from baseline, Mean: -0.17 L
Baseline weight ≥60-<90 kg
  Pre-bronchodilator FEV1 change from baseline, LS Mean: -0.13 L
  Pre-bronchodilator FEV1 change from baseline, LS Mean Diff vs. placebo: -0.07 L
  Pre-bronchodilator FEV1 change from baseline, Mean: -0.15 L
Baseline weight ≥90 kg
  Pre-bronchodilator FEV1 change from baseline, LS Mean: -0.15 L
  Pre-bronchodilator FEV1 change from baseline, LS Mean Diff vs. placebo: -0.05 L
  Pre-bronchodilator FEV1 change from baseline, Mean: -0.17 L
female
  Pre-bronchodilator FEV1 change from baseline, LS Mean: -0.11 L
  Pre-bronchodilator FEV1 change from baseline, LS Mean Diff vs. placebo: -0.09 L
  Pre-bronchodilator FEV1 change from baseline, Mean: -0.14 L
male
  Pre-bronchodilator FEV1 change from baseline, LS Mean: -0.15 L
  Pre-bronchodilator FEV1 change from baseline, LS Mean Diff vs. placebo: -0.09 L
  Pre-bronchodilator FEV1 change from baseline, Mean: -0.16 L
Smoking history Former
  Pre-bronchodilator FEV1 change from baseline, LS Mean: -0.12 L
  Pre-bronchodilator FEV1 change from baseline, LS Mean Diff vs. placebo: -0.05 L
  Pre-bronchodilator FEV1 change from baseline, Mean: -0.21 L
Smoking history Never
  Pre-bronchodilator FEV1 change from baseline, LS Mean: -0.13 L
